ChEMBL document CHEMBL4130345, “Discovery of a series of dihydroquinoxalin-2(1H)-ones as selective BET inhibitors from a dual PLK1-BRD4 inhibitor” (Eur J Med Chem, 2017)

Key:
[1] = biological target: T1, Bromodomain-containing protein 4 (Homo sapiens, UniProt O60885); assay: Inhibition of BRD4 in human TY82 cells assessed as downregulation of c-Myc mRNA expression after 24 hrs by RT-qPCR method; type: cell-based
[2] = biological target: T1, Bromodomain-containing protein 4; assay: Inhibition of BRD4 in human TY82 cells assessed as downregulation of c-Myc mRNA expression at 1 uM after 24 hrs by RT-qPCR method relative to control; type: cell-based
[3] = Tmax in ICR (CD-1) mouse at 10 mg/kg, po; type: ADME, organism-based; details: in vivo
[4] = Half life in ICR (CD-1) mouse at 10 mg/kg, po; type: ADME, organism-based; details: in vivo
[5] = biological target: ATPase family AAA domain-containing protein 2B (Homo sapiens) (UniProt Q9ULI0); assay: Inhibition of human partial length ATAD2B (Q955 to R1082 residues) expressed in Escherichia coli BL21 assessed as residual activity at 1 uM after 1 hr by qPCR method relative to control
[6] = biological target: Bromodomain-containing protein 1 (Homo sapiens) (UniProt O95696); assay: Inhibition of human partial length BRD1 (E556 to A688 residues) expressed in Escherichia coli BL21 assessed as residual activity at 1 uM after 1 hr by qPCR method relative to control
[7] = biological target: Bromodomain testis-specific protein (Homo sapiens) (UniProt Q58F21); assay: Inhibition of human partial length BRDT bromodomain 1 (N21 to E137 residues) expressed in Escherichia coli BL21 assessed as residual activity at 1 uM after 1 hr by qPCR method relative to control
Peregrin (Homo sapiens) = Peregrin (Homo sapiens) (UniProt P55201); assay: Inhibition of human partial length BRPF1 (E627 to G740 residues) expressed in Escherichia coli BL21 assessed as residual activity at 1 uM after 1 hr by qPCR method relative to control
[8] = biological target: Bromodomain and PHD finger-containing protein 3 (Homo sapiens) (UniProt Q9ULD4); assay: Inhibition of human partial length BRPF3 (E588 to G701 residues) expressed in Escherichia coli BL21 assessed as residual activity at 1 uM after 1 hr by qPCR method relative to control
[9] = biological target: CREB-binding protein (Homo sapiens) (UniProt Q92793); assay: Inhibition of human partial length CREBBP (R1081 to G1197 residues) expressed in Escherichia coli BL21 assessed as residual activity at 1 uM after 1 hr by qPCR method relative to control
[10] = biological target: Histone acetyltransferase p300 (Homo sapiens) (UniProt Q09472); assay: Inhibition of human partial length EP300 (A1040 to G1161 residues) expressed in Escherichia coli BL21 assessed as residual activity at 1 uM after 1 hr by qPCR method relative to control
[11] = biological target: Histone acetyltransferase KAT2B (Homo sapiens) (UniProt Q92831); assay: Inhibition of human partial length PCAF (G715 to D831 residues) expressed in Escherichia coli BL21 assessed as residual activity at 1 uM after 1 hr by qPCR method relative to control
[12] = biological target: SWI/SNF-related matrix-associated actin-dependent regulator of chromatin subfamily A member 2 (Homo sapiens) (UniProt P51531); assay: Inhibition of human partial length SMARCA2 (S1377 to Q1486 residues) expressed in Escherichia coli BL21 assessed as residual activity at 1 uM after 1 hr by qPCR method relative to control
[13] = biological target: Transcription initiation factor TFIID subunit 1-like (Homo sapiens) (UniProt Q8IZX4); assay: Inhibition of human partial length TAF1L bromodomain 2 (Q1523 to D1654 residues) expressed in Escherichia coli BL21 assessed as residual activity at 1 uM after 1 hr by qPCR method relative to control
[14] = biological target: Transcription intermediary factor 1-alpha (Homo sapiens) (UniProt O15164); assay: Inhibition of human partial length TRIM24 (P790 to P977 residues) expressed in Escherichia coli BL21 assessed as residual activity at 1 uM after 1 hr by qPCR method relative to control

SWI/SNF-related matrix-associated actin-dependent regulator of chromatin subfamily A member 2 (Homo sapiens), sequence (P51531 whole entry, the tested form may be a part): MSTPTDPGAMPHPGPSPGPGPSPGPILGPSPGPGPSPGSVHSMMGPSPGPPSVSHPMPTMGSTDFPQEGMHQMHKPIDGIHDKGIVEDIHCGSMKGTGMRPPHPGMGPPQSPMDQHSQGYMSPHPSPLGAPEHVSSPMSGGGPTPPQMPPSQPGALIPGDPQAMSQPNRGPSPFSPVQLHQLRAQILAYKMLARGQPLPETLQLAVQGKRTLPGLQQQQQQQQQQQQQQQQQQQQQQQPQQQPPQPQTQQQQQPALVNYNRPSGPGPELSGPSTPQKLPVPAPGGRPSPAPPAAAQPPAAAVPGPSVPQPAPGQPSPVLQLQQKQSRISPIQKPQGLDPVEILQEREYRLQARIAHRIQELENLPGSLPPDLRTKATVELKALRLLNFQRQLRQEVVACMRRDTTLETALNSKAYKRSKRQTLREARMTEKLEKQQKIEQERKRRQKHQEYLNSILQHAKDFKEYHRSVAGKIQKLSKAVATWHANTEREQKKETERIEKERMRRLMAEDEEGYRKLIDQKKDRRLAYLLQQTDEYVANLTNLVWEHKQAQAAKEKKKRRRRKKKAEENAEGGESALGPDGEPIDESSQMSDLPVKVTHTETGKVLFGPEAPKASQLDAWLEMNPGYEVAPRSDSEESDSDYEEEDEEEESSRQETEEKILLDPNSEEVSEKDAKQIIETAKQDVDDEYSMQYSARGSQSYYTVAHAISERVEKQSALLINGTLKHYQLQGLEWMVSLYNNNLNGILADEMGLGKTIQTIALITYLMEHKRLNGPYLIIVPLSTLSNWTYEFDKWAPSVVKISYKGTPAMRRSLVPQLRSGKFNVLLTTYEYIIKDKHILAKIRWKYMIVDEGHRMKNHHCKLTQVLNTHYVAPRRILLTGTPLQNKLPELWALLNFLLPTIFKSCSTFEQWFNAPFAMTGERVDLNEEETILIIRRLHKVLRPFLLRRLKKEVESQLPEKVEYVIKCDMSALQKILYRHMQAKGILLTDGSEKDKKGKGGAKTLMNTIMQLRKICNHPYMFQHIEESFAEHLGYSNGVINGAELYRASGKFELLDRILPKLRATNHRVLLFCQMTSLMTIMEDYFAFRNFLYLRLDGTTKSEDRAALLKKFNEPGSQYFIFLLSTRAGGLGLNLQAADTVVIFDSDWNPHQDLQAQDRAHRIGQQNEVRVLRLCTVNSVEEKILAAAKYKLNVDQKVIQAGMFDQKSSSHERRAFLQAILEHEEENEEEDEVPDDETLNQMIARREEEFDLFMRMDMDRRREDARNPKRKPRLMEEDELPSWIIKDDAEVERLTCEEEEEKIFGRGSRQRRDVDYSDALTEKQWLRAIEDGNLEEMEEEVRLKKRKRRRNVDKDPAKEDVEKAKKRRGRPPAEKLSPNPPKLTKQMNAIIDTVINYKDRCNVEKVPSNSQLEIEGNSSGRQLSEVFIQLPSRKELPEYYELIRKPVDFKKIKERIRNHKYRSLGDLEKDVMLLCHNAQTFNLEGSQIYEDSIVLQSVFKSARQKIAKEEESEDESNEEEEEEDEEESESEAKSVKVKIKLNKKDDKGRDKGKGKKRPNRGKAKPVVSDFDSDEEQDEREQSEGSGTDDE
CREB-binding protein (Homo sapiens), sequence (Q92793 2-2442 limits assumed): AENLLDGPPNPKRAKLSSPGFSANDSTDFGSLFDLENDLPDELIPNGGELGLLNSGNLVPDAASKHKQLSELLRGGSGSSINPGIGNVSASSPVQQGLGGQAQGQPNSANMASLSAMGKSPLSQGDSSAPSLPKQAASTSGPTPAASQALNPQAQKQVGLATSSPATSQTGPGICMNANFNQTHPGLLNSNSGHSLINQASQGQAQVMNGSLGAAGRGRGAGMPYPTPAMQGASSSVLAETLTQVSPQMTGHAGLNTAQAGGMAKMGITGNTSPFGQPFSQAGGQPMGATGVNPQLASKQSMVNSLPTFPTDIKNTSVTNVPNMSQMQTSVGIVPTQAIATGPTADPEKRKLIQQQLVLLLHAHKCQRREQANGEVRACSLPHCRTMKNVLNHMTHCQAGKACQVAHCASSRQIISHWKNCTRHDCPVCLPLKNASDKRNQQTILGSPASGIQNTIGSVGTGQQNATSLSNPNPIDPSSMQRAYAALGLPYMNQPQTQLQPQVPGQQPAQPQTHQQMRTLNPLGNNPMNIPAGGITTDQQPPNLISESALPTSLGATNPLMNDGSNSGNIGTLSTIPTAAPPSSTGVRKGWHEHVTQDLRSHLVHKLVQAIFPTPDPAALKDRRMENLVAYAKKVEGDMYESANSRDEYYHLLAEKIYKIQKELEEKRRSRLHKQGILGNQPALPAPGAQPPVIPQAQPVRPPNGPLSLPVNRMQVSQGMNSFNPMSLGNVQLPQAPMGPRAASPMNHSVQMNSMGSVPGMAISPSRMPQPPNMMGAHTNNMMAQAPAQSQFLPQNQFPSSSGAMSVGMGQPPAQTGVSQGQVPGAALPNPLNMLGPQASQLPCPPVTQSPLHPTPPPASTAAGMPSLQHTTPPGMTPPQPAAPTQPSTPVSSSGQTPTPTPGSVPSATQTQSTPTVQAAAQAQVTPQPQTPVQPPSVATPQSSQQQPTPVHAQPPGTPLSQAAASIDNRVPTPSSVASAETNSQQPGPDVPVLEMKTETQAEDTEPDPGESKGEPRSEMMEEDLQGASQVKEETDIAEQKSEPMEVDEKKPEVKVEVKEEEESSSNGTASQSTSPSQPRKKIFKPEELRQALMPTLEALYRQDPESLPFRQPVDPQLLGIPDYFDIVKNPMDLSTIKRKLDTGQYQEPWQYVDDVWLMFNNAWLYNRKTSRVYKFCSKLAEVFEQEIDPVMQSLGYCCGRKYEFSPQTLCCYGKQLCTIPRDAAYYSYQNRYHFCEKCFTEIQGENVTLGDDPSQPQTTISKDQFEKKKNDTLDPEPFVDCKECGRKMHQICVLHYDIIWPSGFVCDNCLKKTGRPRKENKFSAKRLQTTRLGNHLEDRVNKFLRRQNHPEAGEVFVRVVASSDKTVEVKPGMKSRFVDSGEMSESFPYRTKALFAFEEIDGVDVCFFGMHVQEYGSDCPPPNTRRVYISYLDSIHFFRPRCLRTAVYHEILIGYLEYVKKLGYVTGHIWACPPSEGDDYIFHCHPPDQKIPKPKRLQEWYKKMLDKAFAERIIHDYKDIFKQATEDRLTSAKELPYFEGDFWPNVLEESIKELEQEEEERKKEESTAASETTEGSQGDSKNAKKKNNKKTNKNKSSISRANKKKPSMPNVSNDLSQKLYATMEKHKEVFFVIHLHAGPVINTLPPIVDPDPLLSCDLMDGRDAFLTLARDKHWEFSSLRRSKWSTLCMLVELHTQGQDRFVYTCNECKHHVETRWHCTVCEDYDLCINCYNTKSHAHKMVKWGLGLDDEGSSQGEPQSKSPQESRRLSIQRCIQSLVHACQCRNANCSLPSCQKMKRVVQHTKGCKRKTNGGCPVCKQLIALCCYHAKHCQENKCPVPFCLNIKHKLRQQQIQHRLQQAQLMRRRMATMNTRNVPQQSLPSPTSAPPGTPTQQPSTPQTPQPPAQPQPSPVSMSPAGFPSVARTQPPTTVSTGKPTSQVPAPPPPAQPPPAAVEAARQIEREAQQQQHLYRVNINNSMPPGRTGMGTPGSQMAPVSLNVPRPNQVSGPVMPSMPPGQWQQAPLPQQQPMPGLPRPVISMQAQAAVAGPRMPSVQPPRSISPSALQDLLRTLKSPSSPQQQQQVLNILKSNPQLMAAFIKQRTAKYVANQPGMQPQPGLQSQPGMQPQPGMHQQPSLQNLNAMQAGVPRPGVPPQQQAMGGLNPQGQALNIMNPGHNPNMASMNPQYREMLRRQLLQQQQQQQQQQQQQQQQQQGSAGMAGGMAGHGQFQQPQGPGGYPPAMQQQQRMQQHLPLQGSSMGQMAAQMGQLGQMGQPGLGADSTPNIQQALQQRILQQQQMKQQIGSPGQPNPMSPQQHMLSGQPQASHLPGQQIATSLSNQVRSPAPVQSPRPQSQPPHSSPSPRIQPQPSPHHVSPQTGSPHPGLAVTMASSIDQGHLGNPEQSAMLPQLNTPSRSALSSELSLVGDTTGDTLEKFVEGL
Bromodomain-containing protein 1 (Homo sapiens), sequence (O95696 whole entry, the tested form may be a part): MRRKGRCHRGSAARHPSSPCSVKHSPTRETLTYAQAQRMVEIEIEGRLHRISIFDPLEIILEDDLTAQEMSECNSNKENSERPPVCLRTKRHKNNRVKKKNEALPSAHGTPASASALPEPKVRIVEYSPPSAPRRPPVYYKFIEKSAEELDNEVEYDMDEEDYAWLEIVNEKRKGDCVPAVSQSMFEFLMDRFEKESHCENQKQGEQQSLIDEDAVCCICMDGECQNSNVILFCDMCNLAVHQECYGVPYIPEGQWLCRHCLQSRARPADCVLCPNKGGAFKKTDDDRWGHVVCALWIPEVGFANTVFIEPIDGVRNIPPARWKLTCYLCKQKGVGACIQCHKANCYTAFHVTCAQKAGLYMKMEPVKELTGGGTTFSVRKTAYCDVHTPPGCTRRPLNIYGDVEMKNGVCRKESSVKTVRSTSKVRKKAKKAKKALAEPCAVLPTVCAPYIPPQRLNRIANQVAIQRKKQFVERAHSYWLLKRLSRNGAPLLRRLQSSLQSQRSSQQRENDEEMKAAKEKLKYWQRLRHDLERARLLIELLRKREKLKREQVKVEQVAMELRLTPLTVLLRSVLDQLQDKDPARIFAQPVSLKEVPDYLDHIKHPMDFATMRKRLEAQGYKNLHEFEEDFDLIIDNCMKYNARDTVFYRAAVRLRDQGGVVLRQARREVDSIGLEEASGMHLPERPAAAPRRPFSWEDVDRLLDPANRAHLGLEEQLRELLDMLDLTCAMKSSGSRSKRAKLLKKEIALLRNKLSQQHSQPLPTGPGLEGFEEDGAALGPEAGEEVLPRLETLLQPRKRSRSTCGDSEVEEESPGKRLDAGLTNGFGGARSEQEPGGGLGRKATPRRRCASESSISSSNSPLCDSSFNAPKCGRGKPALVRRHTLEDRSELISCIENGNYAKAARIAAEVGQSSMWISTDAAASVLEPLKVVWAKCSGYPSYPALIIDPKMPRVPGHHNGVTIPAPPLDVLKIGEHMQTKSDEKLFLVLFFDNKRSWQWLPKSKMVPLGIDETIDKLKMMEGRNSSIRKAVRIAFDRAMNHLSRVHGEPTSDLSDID

inhibition [1]: Dose-dependent effect
inhibition [2]: > 60%
Tmax [3]: 0.33 h
half-life [4]: 2.23 h
Activity [5]: 100%
Activity [6]: 57%
Activity [7]: 3.1%
Activity (Peregrin (Homo sapiens)): 100%
Activity [8]: 100%
Activity [9]: 67%
Activity [10]: 47%
Activity [11]: 96%
Activity [12]: 73%
Activity [13]: 88%
Activity [14]: 80%
SMILES: Cc1ccc([C@H](C)Nc2ccc3c(c2)N(C2CC2)[C@H](C)C(=O)N3C)c(C)c1
